Laboratory results published in patent publication US20260209234A1, “SUBSTITUTED DIHYDROPYRROLO[3,4-D]PYRIMIDINE COMPOUNDS AND THEIR USE IN TREATING MEDICAL CONDITIONS” (Karuna Therapeutics, Inc., priority 2022, published 2026).
pEC50: −log10 of the molar value.

Tests used:
hM4 receptors = target: T1, hM4 receptors (Homo sapiens, UniProt P08173); assay: Human M4 PAM pERK assay; format: cell-based; conditions: CHO cells expressing hM4; EC20 of acetylcholine (10 nM final); TR-FRET
T1 construct: expressed in transfected cells; host or cells: CHO cells
T1 sequence (P08173 1-479): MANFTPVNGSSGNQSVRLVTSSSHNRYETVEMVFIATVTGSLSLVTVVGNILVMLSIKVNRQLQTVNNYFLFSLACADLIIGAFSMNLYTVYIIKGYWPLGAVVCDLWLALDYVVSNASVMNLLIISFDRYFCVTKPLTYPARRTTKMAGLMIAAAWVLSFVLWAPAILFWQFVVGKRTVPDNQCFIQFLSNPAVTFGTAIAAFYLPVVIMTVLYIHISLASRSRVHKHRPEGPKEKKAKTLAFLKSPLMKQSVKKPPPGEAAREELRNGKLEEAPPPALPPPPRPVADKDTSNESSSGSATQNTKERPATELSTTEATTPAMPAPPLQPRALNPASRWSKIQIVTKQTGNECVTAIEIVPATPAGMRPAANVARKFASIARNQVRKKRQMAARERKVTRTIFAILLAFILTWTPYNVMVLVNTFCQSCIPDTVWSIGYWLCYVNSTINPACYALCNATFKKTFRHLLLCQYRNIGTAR
Experimental: (§1) Chinese hamster ovary (CHO) cells expressing either hM4 or rM4 receptors were frozen in assay ready vials (5×10^6 cells/vial) after bulking-up in culture. The day before an assay, vial(s) were thawed and cells seeded in 384 well white proxiplates at 1000/well for hM4 cells and at 2000/well for rM4 cells, in 10 μL of growth media (Hams/F12 with glutamax and 10% FCS) and incubated overnight at 37° C./5% CO2.
(§2) On the following morning, the growth media was removed by ‘flicking out’ over a bin, patting the inverted plate onto tissue, and then replacing with 10 μL of wash media (Hams/F12 with glutamax and 8 mM HEPES, NB: serum free). Then, the wash media was removed in the same way and replaced with 8 μL/well of the serum free media. Plates were then re-incubated for a further 4 hours at 37° C./5% CO2.
(§3) Compounds for testing were solubilized to 10 mM in DMSO and compound addition plates, consisting of ten-point concentration response curves (CRC) in duplicate points (10 μM top concentration, 1/2 log dilution series), were prepared by acoustic dispensing and the compound management group.
(§4) After the 4-hour incubation in serum free media, a 4 μL aliquot of the 3× compound solution containing an EC20 of acetylcholine (10 nM final concentration) was added to the cell plate using a 384 well plate to plate transfer. Then, the plate lid was replaced, and the cells incubated for 5 mins at 37° C./5% CO2. Following this final incubation, all cellular processes were stopped by the addition of 4 μL/well of lysis and blocking buffer and plates were incubated for 30 minutes at RT on an orbital shaker (gentle setting). Then, a final addition of 4 μL/well of antibody detection mix, containing both the Europium-Cryptate (donor) and d2 (acceptor) tagged detection components, was added followed by a further 2-hour incubation at RT, and then the plate was read using a TR-FRET (time resolved fluorescence resonance energy transfer) based protocol.

human M4 receptor = target: T2, human M4 receptor (Homo sapiens, UniProt P08173); assay: M4 GTPγS PAM assay; format: biochemical; conditions: membranes of CHO-K1 cells stably expressing human M4; EC20 acetylcholine 40 nM; 35S-GTP
T2 construct: expressed in transfected cells
T2 sequence (P08173 1-479): T1 sequence (P08173 1-479)
Experimental: The M4 GTPγS PAM method was used. Membranes were prepared for GTPgS binding assays from CHO-K1 cells stably expressing human M4 receptor. Briefly, cells were grown in 5-layer cell culture flasks. Cells were washed with 50 mL of PBS and then dissociated with 0.05% trypsin. Dissociated cells were then collected by centrifugation at 650×g for 8 minutes at 4° C. Pellets were washed again in PBS by centrifugation and resuspended in 30 mL of 20 mM HEPES, 10 mM EDTA, pH 7.4. After sitting on ice for 30 min, membranes were collected by centrifugation at 50000×g for 15′ at 4° C., resuspended in 30 mL of 20 mM HEPES, 0.1 mM EDTA, pH 7.4 and collected again by centrifugation. Pellets were then washed twice by centrifugation in 30 mL of 20 mM HEPES, pH 7.4, and stored at −80° C. until the day of the assay. On the day of the assay, pellets were thawed on ice and resuspended in 1 mL of 20 mM HEPES, pH 7.4, 10 mM MgCl2, 100 mM NaCl using dounce homogenization. Membrane protein concentration is determined by BCA protein assay (Promega, Madison, WI) according to Promega guidelines.
On the day of the assay, serial dilutions of test PAM compounds were brought up in assay buffer (20 mM HEPES, 10 mM MgCl2, 100 mM NaCl) at 4× final assay concentration. […] of membrane homogenates (containing […] of membrane protein) were prepared in assay buffer supplemented with GDP at 4× final assay concentration (final assay concentration of GDP is 5 μM for M2 and 0.1 μM for M4) and dispensed into 96 well polypropylene, U-bottom Greiner plates. […] of vehicle or test PAM compound at 4× of final assay concentration diluted in the assay buffer were added to membrane and plates are incubated for 10-15 minutes at room temperature with gentle shaking. Then, […] of EC20 acetylcholine in assay buffer at 4× final assay concentration was added to assay plates (EC20 final assay concentrations was 40 nM for human M4).
Plates were then incubated, with shaking, for an additional 10-15 minutes. […] of 0.4 nM 35S-GTP (Perkin Elmer, Waltham, MA) in assay buffer was added to assay mixtures. The binding reaction is left on the shaker for 1 hour at room temperature. Membranes in assay reactions were then transferred to GF/C filter plates (Unifilter, Perkin Elmer) and washed three times using a FilterMate Harvester (Perkin Elmer) with cold assay buffer containing no GDP. Filter plates were then dried at 40° C. overnight followed by the addition of […] of Beta Plate Scintillation liquid. Plates are top and bottom sealed before being read on TopCount scintillation counter (Perkin Elmer, Waltham, MA).

rM4 receptors = target: T3, rM4 receptors (Rattus norvegicus, UniProt P08485); assay: Rat M4 PAM pERK assay; format: cell-based; conditions: CHO cells expressing rM4; EC20 of acetylcholine (10 nM final); TR-FRET
T3 construct: expressed in transfected cells; host or cells: CHO cells
T3 sequence (P08485 1-478): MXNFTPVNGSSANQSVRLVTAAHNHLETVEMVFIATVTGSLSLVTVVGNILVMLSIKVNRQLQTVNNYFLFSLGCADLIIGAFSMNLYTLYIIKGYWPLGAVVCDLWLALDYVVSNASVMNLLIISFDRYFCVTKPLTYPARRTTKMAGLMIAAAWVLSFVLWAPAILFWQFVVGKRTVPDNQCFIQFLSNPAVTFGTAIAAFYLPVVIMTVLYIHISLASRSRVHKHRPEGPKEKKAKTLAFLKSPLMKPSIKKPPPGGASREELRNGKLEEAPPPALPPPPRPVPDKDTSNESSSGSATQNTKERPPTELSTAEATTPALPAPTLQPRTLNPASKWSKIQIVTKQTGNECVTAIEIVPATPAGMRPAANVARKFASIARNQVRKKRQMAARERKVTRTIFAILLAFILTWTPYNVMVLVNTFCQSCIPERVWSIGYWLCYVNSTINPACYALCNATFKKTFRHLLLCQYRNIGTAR
Experimental: as §1, §2, §3, §4

Row | SMILES | pEC50 (hM4 receptors) | pEC50 (human M4 receptor) | pEC50 (rM4 receptors)
1 | COc1nc(C)nc2c1C(C)N(C(=O)CC1CN(c3ccnc(C(F)(F)F)c3)C1)C2 (racemic) [Compound I-51, 1-(4-Methoxy-2,5-dimethyl-5,7-dihydro-6H-pyrrolo[3,4-d]pyrimidin-6-yl)-2-(1-(2-(trifluoromethyl)pyridin-4-yl)azetidin-3-yl)ethan-1-one] | 6.30 to 7.00 | 6.30 to 7.00 | 5.70 to 6.30
2 | COc1nc2c(c(OC)n1)C(C)N(C(=O)CC1CN(c3ccnc(C(F)(F)F)c3)C1)C2 (racemic) [Compound I-67, 1-(2,4-Dimethoxy-5-methyl-5,7-dihydro-6H-pyrrolo[3,4-d]pyrimidin-6-yl)-2-(1-(2-(trifluoromethyl)pyridin-4-yl)azetidin-3-yl)ethan-1-one] | 6.30 to 7.00 | ≥ 7.00 | 5.70 to 6.30
3 | COc1nc(C#N)nc2c1C(C)N(C(=O)CC1CN(c3ncns3)C1)C2 (single isomer, unassigned) [Compound I-4, 6-(2-(1-(1,2,4-Thiadiazol-5-yl)azetidin-3-yl)acetyl)-4-methoxy-5-methyl-6,7-dihydro-5H-pyrrolo[3,4-d]pyrimidine-2-carbonitrile] | ≤ 5.70 | ≤ 5.70 | ≤ 5.70
4 | COc1nc(C#N)nc2c1C(C)N(C(=O)CC1CN(c3ccnc(C(F)(F)F)c3)C1)C2 (single isomer, unassigned) [Compound I-5, 4-Methoxy-5-methyl-6-(2-(1-(2-(trifluoromethyl)pyridin-4-yl)azetidin-3-yl)acetyl)-6,7-dihydro-5H-pyrrolo[3,4-d]pyrimidine-2-carbonitrile] | ≤ 5.70 | ≤ 5.70 | ≤ 5.70
5 | COc1nc(C#N)nc2c1C(C)N(C(=O)CC1CN(c3cccnc3)C1)C2 (single isomer, unassigned) [Compound I-7, 4-Methoxy-5-methyl-6-(2-(1-(pyridin-3-yl)azetidin-3-yl)acetyl)-6,7-dihydro-5H-pyrrolo[3,4-d]pyrimidine-2-carbonitrile] | ≤ 5.70 | ≤ 5.70 | ≤ 5.70
6 | COc1nc(C#N)nc2c1C(C)N(C(=O)CC1CN(c3cccnc3)C1)C2 (single isomer, unassigned) [Compound I-8, 4-Methoxy-5-methyl-6-(2-(1-(pyridin-3-yl)azetidin-3-yl)acetyl)-6,7-dihydro-5H-pyrrolo[3,4-d]pyrimidine-2-carbonitrile] | ≥ 7.00 | 5.70 to 6.30 | 6.30 to 7.00
7 | COc1nc(C#N)nc2c1C(C)N(C(=O)CC1CN(c3ccnc(C4CC4)c3)C1)C2 (single isomer, unassigned) [Compound I-11, 6-(2-(1-(2-Cyclopropylpyridin-4-yl)azetidin-3-yl)acetyl)-4-methoxy-5-methyl-6,7-dihydro-5H-pyrrolo[3,4-d]pyrimidine-2-carbonitrile] | ≤ 5.70 | ≤ 5.70 | ≤ 5.70
8 | COc1nc(C#N)nc2c1C(C)N(C(=O)CC1CN(c3ccnc(C4CC4)c3)C1)C2 (single isomer, unassigned) [Compound I-12, 6-(2-(1-(2-Cyclopropylpyridin-4-yl)azetidin-3-yl)acetyl)-4-methoxy-5-methyl-6,7-dihydro-5H-pyrrolo[3,4-d]pyrimidine-2-carbonitrile] | ≥ 7.00 | ≥ 7.00 | 5.70 to 6.30
9 | COc1nc(C#N)nc2c1C(C)N(C(=O)CC1CN(c3ccnc(OC4CC4)c3)C1)C2 (single isomer, unassigned) [Compound I-13, 6-(2-(1-(2-Cyclopropoxypyridin-4-yl)azetidin-3-yl)acetyl)-4-methoxy-5-methyl-6,7-dihydro-5H-pyrrolo[3,4-d]pyrimidine-2-carbonitrile] | ≤ 5.70 | 5.70 to 6.30 | ≤ 5.70
10 | COc1nc(C#N)nc2c1C(C)N(C(=O)CC1CN(c3ccnc(OC4CC4)c3)C1)C2 (single isomer, unassigned) [Compound I-14, 6-(2-(1-(2-Cyclopropoxypyridin-4-yl)azetidin-3-yl)acetyl)-4-methoxy-5-methyl-6,7-dihydro-5H-pyrrolo[3,4-d]pyrimidine-2-carbonitrile] | ≥ 7.00 | ≥ 7.00 | 5.70 to 6.30
11 | COc1nc(C#N)nc2c1C(C)N(C(=O)CC1CN(c3cccc(C(F)(F)F)c3)C1)C2 (single isomer, unassigned) [Compound I-15, 4-Methoxy-5-methyl-6-(2-(1-(3-(trifluoromethyl)phenyl)azetidin-3-yl)acetyl)-6,7-dihydro-5H-pyrrolo[3,4-d]pyrimidine-2-carbonitrile] | ≤ 5.70 | ≤ 5.70 | ≤ 5.70
12 | COc1nc(C)nc2c1CN(C(=O)CC1(F)CN(c3ccnc(C(F)(F)F)c3)C1)C2 [Compound I-42, 2-(3-Fluoro-1-(2-(trifluoromethyl)pyridin-4-yl)azetidin-3-yl)-1-(4-methoxy-2-methyl-5,7-dihydro-6H-pyrrolo[3,4-d]pyrimidin-6-yl)ethan-1-one] | ≤ 5.70 | ≤ 5.70 | 
13 | Cc1nc2c(c(OC3CC3)n1)CN(C(=O)CC1CN(c3ccnc(C(F)(F)F)c3)C1)C2 [Compound I-49, 1-(4-Cyclopropoxy-2-methyl-5,7-dihydro-6H-pyrrolo[3,4-d]pyrimidin-6-yl)-2-(1-(2-(trifluoromethyl)pyridin-4-yl)azetidin-3-yl)ethan-1-one] | ≤ 5.70 | ≤ 5.70 | 
